The source of these data is patent US11427548B2 (Arvinas Operations, Inc., priority 2015, dated 2022).

This experiment addresses T1, Androgen Receptor (Homo sapiens, UniProt P10275).
T1 construct: endogenous in cells; host or cells: VCaP cells
T1 sequence (P10275 1-920): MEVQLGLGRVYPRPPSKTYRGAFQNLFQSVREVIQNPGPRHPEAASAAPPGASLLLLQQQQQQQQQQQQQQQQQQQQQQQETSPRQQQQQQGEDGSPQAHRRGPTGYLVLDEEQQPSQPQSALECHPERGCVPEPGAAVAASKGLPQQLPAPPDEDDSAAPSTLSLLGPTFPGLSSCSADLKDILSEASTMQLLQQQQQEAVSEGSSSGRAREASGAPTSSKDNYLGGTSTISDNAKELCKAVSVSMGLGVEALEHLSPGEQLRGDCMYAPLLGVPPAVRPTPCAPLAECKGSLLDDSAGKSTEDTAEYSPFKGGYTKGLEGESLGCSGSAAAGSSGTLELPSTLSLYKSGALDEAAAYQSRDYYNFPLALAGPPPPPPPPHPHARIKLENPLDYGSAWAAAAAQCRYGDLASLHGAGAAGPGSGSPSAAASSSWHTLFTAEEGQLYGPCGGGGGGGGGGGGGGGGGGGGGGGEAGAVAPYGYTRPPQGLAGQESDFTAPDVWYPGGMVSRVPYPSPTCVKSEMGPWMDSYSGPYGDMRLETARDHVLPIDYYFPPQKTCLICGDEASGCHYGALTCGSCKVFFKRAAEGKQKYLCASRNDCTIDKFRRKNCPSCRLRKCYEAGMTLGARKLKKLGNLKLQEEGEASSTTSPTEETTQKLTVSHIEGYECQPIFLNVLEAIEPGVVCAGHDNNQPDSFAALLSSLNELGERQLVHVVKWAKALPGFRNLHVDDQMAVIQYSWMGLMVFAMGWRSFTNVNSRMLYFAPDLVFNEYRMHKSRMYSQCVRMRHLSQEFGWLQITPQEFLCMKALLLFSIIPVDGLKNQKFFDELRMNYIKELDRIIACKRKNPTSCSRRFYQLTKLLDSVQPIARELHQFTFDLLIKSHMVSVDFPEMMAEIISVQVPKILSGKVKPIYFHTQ
The experiment in a line: Androgen Receptor ELISA assay (PathScan AR ELISA) in VCaP cells: AR degradation, Dmax and DC50. The experiment is classed as cell-based. A digest of the protocol:
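After 24 h exposure of VCaP cells (charcoal-stripped serum, 0.1 nM R1881 agonist, 0.1% DMSO) to seven half-log compound concentrations, residual AR in lysates was measured by PathScan ELISA (TMB absorbance, 450 nm). Cells were plated at 30,000/well and grown at least 3 days beforehand.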

Setting [1] is: VCaP cells; Table 36; read-out: VCaP DC50.
The mark [2] stands for this setting: VCaP, VCaP cells; Table 36; read-out: VCaP Dmax (%).

Structures are written as SMILES. Read-outs that look alike come from different tables or passages of the source.

As to `Cc1ncsc1-c1ccc(CNC(=O)[C@@H]2C[C@@H](O)CN2C(=O)[C@H](C(C)C)N2Cc3ccccc3C2=O)c(OCCN2CCN(c3ccc(C(=O)N[C@H]4C(C)(C)[C@H](Oc5ccc(C#N)c(Cl)c5)C4(C)C)cn3)CC2)c1` [Example 732, N-((1r,3r)-3-(3-chloro-4-cyanophenoxy)-2,2,4,4-tetramethylcyclobutyl)-6-(4-(2-(2-(((2S,4R)-4-hydroxy-1-((S)-3-methyl-2-(1-oxoisoindolin-2-yl)butanoyl)pyrrolidine-2-carboxamido)methyl)-5-(4-methylthiazol-5-yl)phenoxy)ethyl)piper-azin-1-yl)nicotinamide], the DC50 under setting [1] is < 50 nM. Also, under setting [2], the Dmax was > 71%.

For `Cc1ncsc1-c1ccc(CNC(=O)[C@@H]2C[C@@H](O)CN2C(=O)[C@H](C(C)C)N2Cc3ccccc3C2=O)c(OCCN2CCN(c3ccc(C(=O)N[C@H]4C(C)(C)[C@H](Oc5ccc(C#N)c(C(F)(F)F)c5)C4(C)C)cn3)CC2)c1` [Example 733, N-((1r,3r)-3-(4-cyano-3-(trifluoromethyl)phenoxy)-2,2,4,4-tetramethylcyclobutyl)-6-(4-(2-(2-(((2S,4R)-4-hydroxy-1-((S)-3-methyl-2-(1-oxoisoindolin-2-yl)butanoyl)pyrrolidine-2-carboxamido)methyl)-5-(4-methylthiazol-5-yl)phenoxy)ethyl)piper-azin-1-yl)nicotinamide], the DC50 under setting [1] was < 50 nM. Besides, the Dmax under setting [2] is > 71%.

With `CC(=O)N[C@H](C(=O)N1C[C@H](O)C[C@H]1C(=O)N[C@@H](C)c1ccc(-c2scnc2C)cc1)[C@@H](C)OCCCN(C)CCc1ccc(C(=O)N[C@H]2C(C)(C)[C@H](Oc3ccc(C#N)c(Cl)c3)C2(C)C)cc1` [Example 734, (2S,4R)-1-(N-acetyl-O-(3-((4-(((1r,3r)-3-(3-chloro-4-cyanophenoxy)-2,2,4,4-tetramethylcyclobutyl)carbamoyl)phenethyl)(meth-yl)amino)propyl)-L-threonyl)-4-hydroxy-N-((S)-1-(4-(4-methylthiazol-5-yl)phenyl)ethyl)pyrrolidine-2-carboxamide], the DC50 under setting [1] was > 501 nM. Besides, the Dmax under setting [2] was < 25%.

In the case of `Cc1cc(C(C(=O)N2C[C@H](O)C[C@H]2C(=O)NCc2ccc(Cl)cc2OCCOCCOCCOc2ccc(N3C(=S)N(c4ccc(C#N)c(C(F)(F)F)c4)C(=O)C3(C)C)cc2)C(C)C)on1` (stereo partly drawn) [Example 735, (2S,4R)-N-(4-chloro-2-(2-(2-(2-(4-(3-(4-cyano-3-(trifluoromethyl)phenyl)-5,5-dimethyl-4-oxo-2-thioxoimidazolidin-1-yl)phenoxy)ethoxy)eth-oxy)ethoxy)benzyl)-4-hydroxy-1-(3-methyl-2-(3-methylisoxazol-5-yl)butanoyl)pyrrolidine-2-carboxamide], the Dmax (VCaP, read-out: VCaP Dmax (%)) is < 25%. The DC50 (read-out: VCaP DC50; VCaP cells; Table 36) is > 501 nM.

As to `CC(C)(C)[C@H](NC(=O)COCCN1CCN(c2ccc(C(=O)N[C@H]3C(C)(C)[C@H](Oc4ccc(C#N)c(Cl)c4)C3(C)C)cn2)CC1)C(=O)N1C[C@H](O)C[C@H]1C(=O)NCc1ccc(C#N)cc1` [Example 736, N-((1r,3r)-3-(3-chloro-4-cyanophenoxy)-2,2,4,4-tetramethylcyclobutyl)-6-(4-(2-(2-(((S)-1-((2S,4R)-2-((4-cyanobenzyl)carbamoyl)-4-hydroxypyrrolidin-1-yl)-3,3-dimethyl-1-oxobutan-2-yl)amino)-2-oxoethoxy)ethyl)pipera-zin-1-yl)nicotinamide], the DC50 under setting [1] was < 50 nM. The Dmax under setting [2] was 51 to 70%.

Regarding `CC(C)(C)[C@H](NC(=O)COCCN1CCN(c2ccc(C(=O)N[C@H]3C(C)(C)[C@H](Oc4ccc(C#N)c(Cl)c4)C3(C)C)cn2)CC1)C(=O)N1C[C@H](O)C[C@H]1C(=O)NCc1ccc(Cl)cc1` [Example 737, N-((1r,3r)-3-(3-chloro-4-cyanophenoxy)-2,2,4,4-tetramethylcyclobutyl)-6-(4-(2-(2-(((S)-1-((2S,4R)-2-((4-chlorobenzyl)carbmaoyl)-4-hydroxypyrrolidin-1-yl)-3,3-dimethyl-1-oxobutan-2-yl)amino)-2-oxoethoxy)ethyl)pipera-zin-1-yl)nicotinamdie], the DC50 under setting [1] was > 501 nM. Under setting [2], the Dmax was 26 to 50%.

`CC(C)C[C@@H](C(=O)N[C@@H](C)C(=O)N1C[C@H](O)C[C@H]1C(=O)N[C@@H](C)c1ccc(Cl)cc1)N1CCN(CCCc2ccc(C(=O)N[C@H]3C(C)(C)[C@H](Oc4ccc(C#N)c(Cl)c4)C3(C)C)cc2)CC1` [Example 738, (2S,4R)-1-(((S)-2-(4-(3-(4-(((1r,3r)-3-(3-chloro-4-cyanophenoxy)-2,2,4,4-tetramethylcyclobutyl)carbamoyl)phenyl)propyl)piperazin-1-yl)-4-methylpentanoyl)-L-alanyl)-N-((S)-1-(4-chlorophenyl)ethyl)-4-hydroxypyrrolidine-2-carboxamide]: the DC50 under setting [1] is > 501 nM. Also, the Dmax under setting [2] was < 25%.

`C[C@H](NC(=O)[C@@H]1C[C@@H](O)CN1C(=O)[C@@H](NC(=O)CN1CCN(CCCc2ccc(C(=O)N[C@H]3C(C)(C)[C@H](Oc4ccc(C#N)c(Cl)c4)C3(C)C)cc2)CC1)C(C)(C)C)c1ccc(Cl)cc1` [Example 739, (2S,4R)-1-((S)-2-(2-(4-(3-(4-(((1r,3r)-3-(3-chloro-4-cyanophenoxy)-2,2,4,4-tetramethylcyclobutyl)carbamoyl)phenyl)propyl)piperazin-1-yl)acetamido)-3,3-dimethylbutanoyl)-N-((S)-1-(4-chlorophenyl)ethyl)-4-hydroxypyrrolidine-2-carboxamide]: the half-maximal degradation concentration (DC50) under setting [1] is > 501 nM. The Dmax under setting [2] is < 25%.

In the case of `C[C@H](NC(=O)C1C[C@@H](O)CN1C(=O)[C@@H](NC(=O)COCCCCCc1ccc(C(=O)N[C@H]2C(C)(C)[C@H](Oc3ccc(C#N)c(Cl)c3)C2(C)C)cc1)C(C)(C)C)c1ccc(Cl)cc1` (stereo partly drawn) [Example 740, (2S,4R)-1-((S)-2-(2-((5-(4-(((1r,3r)-3-(3-chloro-4-cyanophenoxy)-2,2,4,4-tetramethylcyclobutyl)carbamoyl)phenyl)pentyl)oxy)acetamido)-3,3-dimethylbutanoyl)-N-((S)-1-(4-chlorophenyl)ethyl)-4-hydroxypyrroldiine-2-carboxamide], the DC50 under setting [1] is < 50 nM. Under setting [2], the Dmax lay within 51 to 70%.

Take `Cc1ncsc1-c1ccc([C@H](C)NC(=O)[C@@H]2C[C@@H](O)CN2C(=O)[C@@H](NC(=O)CN2CCN(CC3(Cc4ccc(C(=O)N[C@H]5C(C)(C)[C@H](Oc6ccc(C#N)c(C(F)(F)F)c6)C5(C)C)cc4)COC3)CC2)C(C)(C)C)cc1` [Example 741, (2S,4R)-1-((S)-2-(2-(4-((3-(4-(((1r,3r)-3-(4-cyano-3-(trifluoromethyl)phenoxy)-2,2,4,4-tetramethylcyclobutyl)carbamoyl)benzyl)oxetan-3-yl)methyl)piperazin-1-yl)acetamido)-3,3-dimethylbutanoyl)-4-hydroxy-N-((S)-1-(4-(4-methylthiazol-5-yl)phenyl)ethyl)pyrrolidine-2-carboxamide]: the DC50 under setting [1] was < 50 nM. Also, the Dmax (VCaP, read-out: VCaP Dmax (%)) fell in the range of 51 to 70%.
